Assay results from patent publication US20230392180A1, “MICROSCOPIC IMAGING AND ANALYSES OF EPIGENETIC LANDSCAPE” (Sanford Burnham Prebys Medical Discovery Institute, priority 2020, published 2023).
“Also recorded” adds a separate entry of the source. One block for each compound: values may come before it.

What was measured:
C57BL/6J male mice = assay: miBioAge (MIEL-CLOCK) after doxorubicin injection; type: in vivo
Experimental: This can be shown by employing classical treatments such as doxorubicin (DOX), paclitaxel (PTX), or temozolomide (TMZ), known to promote hallmarks of aging to compare miBioAge readouts in blood (PBMC and CD3+ cells) and liver hepatocytes to chronologically matched untreated controls. Blood was collected on day 0 (retro-orbital) from 3-month old C57BL/6J male mice and 22-month old C57BL/6J male mice. On day 1, doxorubicin was injected into the experimental mice. All controls received PBS injection. Blood was collected on day 20 (retro-orbital) from all mice and liver hepatocytes on day 21. Cells were analyzed 21 days after treatment to avoid the effects of acute stress response and favor the aging-related phenomena.

[1] = Variance of chromatin and epigenetic landscape (VITA) score; type: in vivo, mice; conditions: after treatment
From the text: In some instances, in addition to computing the values of individual cell nucelli in multidimensional space of statistical texture features, coefficient of variance (CV) is used, defined as the ratio of the standard deviation a sigma to the mean p, namely. CV for each field of view, well, technical replicate, and biological replicate such organs tissues and cells from individual mice could be computed based on individual nuclei and the results are stable using 200-2000 nuclei per experimental replica (e.g., individual wells). […] This means that quantitatively CV can be informative values serving as a quantitative measurement of individual organ, tissue, or cell type from individual animals.

[2] = female, human
GBM2 cells [3] = assay: RNAseq and transcriptomic analysis; type: cell-based, human
Experimental: RNAseq and transcriptomic analysis: Total RNA was isolated from GBM2 cells using the RNeasy Kit (Qiagen), 0.5 ug total RNA was used for isolation of mRNAs and library preparation. Library preparation and sequencing was conducted by the SBP genomics core (Sanford-Burnham NCI Cancer Center Support Grant P30 CA030199). PolyA RNA was isolated using the NEBNext® Poly(A) mRNA Magnetic Isolation Module and barcoded libraries were made using the NEBNext® Ultra II™ Directional RNA Library Prep Kit for Illumina® (NEB, Ipswich MA). Libraries were pooled and single end sequenced (1X75) on the Illumina NextSeq 500 using the High output V2 kit (Illumina). Read data was processed in BaseSpace. Reads were aligned to Homo sapiens genome (hg19) using STAR aligner with default settings. Differential transcript expression was determined using the Cufflinks Cuffdiff package. Go term enrichment analysis was conducted using PANTHER v11 using all genes identified as differentially expressed following either serum or Bmp4 treatment. For heat maps showing fold change in expression the FPKM values in each population were divided by the average FPKM values of untreated GBM2. To highlight differences in expression levels between serum and Bmp4 treated GBM2 cells the FPKM values in each sample were z-scored. Zscore=(FPKMObservation−FPKMAverage)/FPKMSD (FPKMObservation−FPKM value obtain through sequencing; FPKMAverage−average of all FPKM values in all samples for a certain gene; FPKMSD−standard deviation of FPKM values for a certain gene). Heat maps were generated using Microsoft Excel conditional formatting function.
Correlation of transcriptomic and image-based profiles: Euclidean distance between untreated, serum or Bmp4 treated GBM2 cells (triplicates for each) was calculated using either transcriptomic data (FPKM) or texture features. Pearson's correlation coefficient (R) was transformed to a t-value using the formula (t=R×SQRT(N−2)/SQRT(1−R2) where N is the number of samples, and R is Pearson correlation coefficient, and the p-value was calculated using Excel tdist(t) function. For compound prioritization, the Euclidean distance between compound treated and serum or Bmp4 treated GBM2 cells was calculated based on either transcriptomic data (FPKM) or image features. The average distance to both serum and Bmp4 treatments was normalized to the average distance of untreated cells to serum and Bmp4.
RNAseq and transcriptomic analysis: Total RNA was isolated from GBM2 cells using the RNeasy Kit (Qiagen), 0.25 μg total RNA was used to isolate mRNAs and for library preparation. Library preparation and sequencing were conducted by the SBP genomics core (Sanford-Burnham NCI Cancer Center Support Grant P30 CA030199). PolyA RNA was isolated using the NEBNext® Poly(A) mRNA Magnetic Isolation Module, and barcoded libraries were made using the NEBNext® Ultra II™ Directional RNA Library Prep Kit for Illumina® (NEB, Ipswich MA). Libraries were pooled and single-end sequenced (1×75) on the Illumina NextSeq 500 using the High-Output V2 kit (Illumina). Read data, processed in BaseSpace, were aligned to Homo sapiens genome (hg19) using STAR aligner with default settings. Differential transcript expression was determined using the Cufflinks Cuffdiff package. For heat maps showing fold change in expression, FPKM values in each HDACi-treated population were divided by the average FPKM values of DMSO-treated GBM2 and values shown as log 2 of the ratio. Go enrichment analysis was conducted using PANTHER v11 using all genes identified as differentially expressed following either serum or Bmp4 treatment. To highlight differences in expression levels between serum- and Bmp4-treated GBM2 cells, FPKM values in each sample were z-scored. Zscore=(FPKMObservation−FPKMAverage)/FPKMSD (FPKMObservation−FPKM value obtain through sequencing; FPKMAverage−average of all FPKM values in all samples for a certain gene; FPKMSD−standard deviation of FPKM values for a certain gene). […]

GBM2 cells [4] = assay: Epigenetic Drug Screening (MIEL); type: cell-based, human
From the text: Data processing: The image features-based profile for each cell population (e.g., cell types, treatments, technical repetition) was represented using a vector (center of distribution vectors) in which every element is the average value of all cells in that population for a particular feature. The vector's length is given by the number of features chosen (262 per histone modification). Raw feature values were normalized by z-scoring to the average and standard deviation of all populations being compared. All cells in each population were used to calculate center vectors, and each population contained at least 50 cells. Activity level for each drug was determined by calculating the distance from DMSO. […] Euclidean distance of each compound and each DMSO replicate to the DMSO center vector was calculated. Distances were z-scored to the average distance and standard deviation of DMSO replicates from the DMSO center vector. Transcriptomic-based profile for each cell population was represented using a vector in which every element is the z-scored FPKM value for a single gene in that population. […] Raw feature values for all center vectors of all populations in each plate were normalized to the plate-wise DMSO vector; normalized feature values were z-scored as above. […] Activity levels were calculated as above. […] Cell counts were z-scored against the average and standard deviation of all DMSO replicates. […]

H3K27ac and H3K27me3 = H3K27ac and H3K27me3 immunofluorescence intensity; type: cell-based, human; conditions: GBM2, low concentrations (<30 μM), compared with Pan HDAC inhibitors TSA, SAHA
GBM cell lines = assay: Immunostaining of core transcription factors and GFAP after serum or Bmp4 treatment; type: cell-based, human
Experimental: Differentiation treatment: For TPC differentiation treatments cells were cultured in DMEM:F12 Neurobasal media (1:1), 1% B27 supplement, 10% BIT 9500, 1 mM glutamine supplemented with either Bmp4 (100 ng/ml; R&D Systems) or FBS (10%).
Cell staining: Cells were rinsed with PBS and fixed in 4% paraformaldehyde in PBS for 10 min at room temperature. After blocking with PBSAT (2% BSA and 0.5% Triton X-100 in PBS) for 1 h at room temperature, the cells were incubated overnight at 4° C. with primary antibodies diluted in PBSAT. The primary antibodies are listed in Table 2, and the appropriate fluorochrome-conjugated secondary antibodies were used at 1:500 dilution. Nuclear co-staining was performed by incubating cells with Hoechst-33342 nuclear dye.
Microscopy and image analysis: Unless stated otherwise, for MIEL analysis cells were imaged on an Opera QEHS high-content screening system (PerkinElmer) using ×40 water immersion objectives. Images collected on the Opera were analyzed using Acapella 2.6 (PerkinElmer). […] Features of nuclear morphology, fluorescence intensity inter-channel co-localization, and texture features (Image moments, Haralick, Threshold Adjacency Statistics) were calculated using custom algorithms (scripts available from www.andrewslab.ca). […] Between 3 and 8 fields per well were acquired and analyzed using Acapella 2.6 (PerkinElmer). […]

TPCs = assay: Growth rate of treated glioblastoma cells; conditions: 3 days of serum or Bmp4 treatment

Compound: COc1cccc2c1C(=O)c1c(O)c3c(c(O)c1C2=O)C[C@@](O)(C(=O)CO)C[C@@H]3O[C@H]1C[C@H](N)[C@H](O)[C@H](C)O1 [DOX, doxorubicin]
- miBioAge distance (C57BL/6J male mice; 3-month, compared to 3-month control): increases
- miBioAge signatures in CD3+ cells (C57BL/6J male mice; blood collected on day 20): trend shift
- miBioAge signatures in PBMC (C57BL/6J male mice; blood collected on day 20): trend shift
- miBioAge signatures in liver hepatocytes (C57BL/6J male mice; cells analyzed 21 days after treatment): towards the old age
- VITA score [1]: trend for the increase; also recorded: increases

- estimated concentrations reached following repeated administration [2]: ~10 µM
Compound: Oc1ccc(O)cc1 [Hydroquinone]

- estimated concentrations reached following repeated administration [2]: ~10 µM
Compound: CC(=O)S[C@@H]1CC2=CC(=O)CC[C@]2(C)[C@H]2CC[C@@]3(C)[C@@H](CC[C@@]34CCC(=O)O4)[C@H]12 [spironolactone]

Compound: CCCC(CCC)C(=O)O [valproic acid]
- transcriptomic changes (genes altered vs DMSO) (GBM2 cells [3]; GBM2, 24 hours, valproic acid 15 μM): not reflected
- functional classification by discriminant analysis (MIEL) (GBM2 cells [4]; 10 μM, 24 hours, 85 compounds): active but were misclassified
- epigenetic changes detected by MIEL (GBM2 cells [4]; 24-hour treatment, low concentrations (<30 μM)): detectable epigenetic changes
- H3K27ac and H3K27me3 immunofluorescence intensity (H3K27ac and H3K27me3): no increase in histone acetylation or decrease in histone methylation

Compound: Bmp4: Bmp4 (100 ng/ml; R&D Systems), positive control inducing TPC differentiation
- expression of most genes of the transcriptomic stemness signature (GBM2 cells [3]; GBM2, 3 days treatment, vs untreated cells): reduced
- GFAP expression (GBM cell lines): increased
- expression of transcription factors Sox2, Sall2, Brn2 and Olig2 (GBM cell lines; 3 days treatment, cell line dependent): down regulated; also recorded: downregulated
- growth rate of TPCs (TPCs): reduced; also recorded: attenuate
